Test results from PubChem BioAssay (NCI).
Values joined by “and” are separate entries in the source; they are usually repeats but may differ in a detail not shown here. Equal entries are not always repeated.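 Where inhibition never reached the appropriate level, the endpoint shown equals the highest concentration tested. Otherwise, values were interpolated linearly from a five-concentration, 48-hour dose response in 96-well plates. The concentration for 50% growth inhibition is given as GI50. TGI denotes the concentration required for complete inhibition of growth.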

Columns and labels:
Experiment in all cases: inhibition of tumour cell growth, NCI panel, 48 h
MCF7 breast = system: MCF7 breast
SNB-19 CNS = system: SNB-19 CNS
IGROV1 ovarian = system: IGROV1 ovarian
NCI/ADR-RES ovarian = system: NCI/ADR-RES ovarian
SW-620 colon = system: SW-620 colon
HCC-2998 colon = system: HCC-2998 colon
SK-MEL-5 melanoma = system: SK-MEL-5 melanoma
NCI-H23 lung = system: NCI-H23 lung
SNB-75 CNS = system: SNB-75 CNS
HL-60(TB) leukemia = system: HL-60(TB) leukemia

SMILES	GI50 (MCF7 breast)	TGI (MCF7 breast)	GI50 (SNB-19 CNS)	TGI (SNB-19 CNS)	GI50 (IGROV1 ovarian)	TGI (IGROV1 ovarian)	GI50 (NCI/ADR-RES ovarian)	TGI (NCI/ADR-RES ovarian)	GI50 (SW-620 colon)	TGI (SW-620 colon)	GI50 (HCC-2998 colon)	TGI (HCC-2998 colon)	GI50 (SK-MEL-5 melanoma)	TGI (SK-MEL-5 melanoma)	GI50 (NCI-H23 lung)	TGI (NCI-H23 lung)	GI50 (SNB-75 CNS)	TGI (SNB-75 CNS)	GI50 (HL-60(TB) leukemia)	TGI (HL-60(TB) leukemia)
COc1ccc(C(=S)N2CCN(c3cccc(Cl)c3)CC2)cc1	75 µM	> 100 µM	> 100 µM	> 100 µM	58.8 µM	> 100 µM	97 µM	> 100 µM	> 100 µM	> 100 µM	> 100 µM	> 100 µM	84.2 µM	> 100 µM	> 100 µM	> 100 µM	45.1 µM	> 100 µM	> 100 µM	> 100 µM
NC(N)=N/N=C(/c1ccccc1)c1ccc(F)cc1	0.296 µM	12.1 µM	0.476 µM	19.5 µM	0.528 µM	13.5 µM	0.766 µM	4.19 µM	0.376 µM	19.3 µM	0.416 µM	2.09 µM	0.316 µM	4.66 µM	0.403 µM	8.94 µM	0.183 µM	3.09 µM	3.67 µM	–
CN(C)CC(=O)N1CCC(c2ccc(NC(=O)c3ncc(C#N)[nH]3)c(C3=CCCCC3)c2)CC1	3.37 µM	16.9 µM	11.8 µM	25.2 µM	7.48 µM	25.7 µM	14.8 µM	33.8 µM	4.98 µM	18.7 µM	5.74 µM	19 µM	3.5 µM	13.4 µM	5.51 µM	19.5 µM	1.25 µM	9.12 µM	2.99 µM	8.86 µM
Cc1nn(-c2ccc(F)cc2)c2ncnc(Nc3ccc(NC(=O)Nc4ccc(Cl)c(C(F)(F)F)c4)cc3)c12	2.11 µM	6.67 µM	2.93 µM	10.2 µM	2.66 µM	11.2 µM	2.43 µM	10.9 µM	2.93 µM	10.8 µM	2.57 µM	10.6 µM	3.39 µM	12.1 µM	1.91 µM	4.6 µM	1.32 µM	5.41 µM	2.73 µM	8.1 µM
Fc1cccc(COc2ccc(Nc3ncncc3C#Cc3ccccc3)cc2Cl)c1	> 25 µM	> 25 µM	> 25 µM	> 25 µM	> 24 µM	> 25 µM	> 25 µM	> 25 µM	> 25 µM	> 25 µM	> 25 µM	> 25 µM	> 25 µM	> 25 µM	> 25 µM	> 25 µM	> 25 µM	> 25 µM	> 25 µM	> 25 µM
C[C@@H]1CC[C@@H]2[C@@H]1[C@H](OC(=O)/C=C/c1ccccc1)[C@]1(c3ccccc3)C[C@@H](OC(=O)CO)[C@@]2(C)O1	9.19 µM	26.5 µM	20.2 µM	55.9 µM	17 µM	44.5 µM	4.41 µM	24.9 µM	19.1 µM	42.6 µM	14.6 µM	29 µM	13.4 µM	26.2 µM	15 µM	35.9 µM	11.6 µM	37.9 µM	14.9 µM	53.9 µM
CC(=O)OCC1OC(O[C@@H]2C[C@H]3C(C)(C)[C@H](OC(C)=O)CC[C@]3(C)[C@H]3CCC4=C([C@@H](C)C[C@@H](O)[C@H](O)C(C)(C)O)CC[C@@]4(C)[C@@]32C)C(O)C(O)C1O (stereo not given in full)	2.89 µM	11.9 µM	14.3 µM	27.7 µM	16.3 µM	30.1 µM	20.4 µM	43.5 µM	16.8 µM	30.7 µM	12 µM	25.2 µM	16.2 µM	29.7 µM	16.7 µM	30.4 µM	13.2 µM	26 µM	13 µM	28.8 µM
Clc1ccccc1C(c1ccccc1)(c1ccccc1)n1ccnc1	2.89 µM	11.8 µM and 24.7 µM	3.14 µM	17.7 µM and 32.3 µM	3.35 µM	18.7 µM and 22.9 µM	2.88 µM	13.3 µM and 28.2 µM	3.28 µM	13.3 µM and 40.1 µM	3.3 µM	12.7 µM and 31 µM	2.61 µM	10.4 µM and 22.3 µM	2.88 µM	13.1 µM and 26.3 µM	2.14 µM	8.72 µM and 35.5 µM	1.72 µM	5.21 µM
Cc1cc2nc3c4cc(Cl)ccc4n(CCN(C)C)c3nc2cc1C	1.06 µM	2.49 µM	1.92 µM	6.83 µM	1.35 µM	3.86 µM	1.07 µM	5.04 µM	0.821 µM	2.25 µM	1.35 µM	2.74 µM	1.8 µM	3.22 µM	1.65 µM	3.95 µM	0.738 µM	6.24 µM	1.93 µM	4.33 µM
O=C(c1cccs1)c1c(C(F)(F)F)n([O-])c2ccccc2[n+]1=O	0.549 µM	1.95 µM	5.67 µM	13.2 µM	0.0603 µM	2.29 µM	0.677 µM	1.94 µM	1.01 µM	5.94 µM	0.663 µM	1.3 µM	0.686 µM	1.33 µM	0.788 µM	1.73 µM	2.94 µM	9.05 µM	0.25 µM	0.966 µM
CCCCCCCCCCCCCC(=S)NCCCC[C@H](NC(=O)OCc1ccccc1)C(=O)Nc1ccccc1	4.4 µM	> 100 µM	4.27 µM	> 100 µM	5.87 µM	> 100 µM	5.11 µM	> 100 µM	4.12 µM	> 100 µM	5.69 µM	> 100 µM	8.39 µM	> 100 µM	4.14 µM	> 100 µM	3.85 µM	> 100 µM	3.89 µM	> 100 µM
COc1cc(/C=C\[N+](=O)[O-])ccc1O	1.63 µM	4.28 µM	4.92 µM	18 µM	2.61 µM	6.97 µM	2.84 µM	7.95 µM	2.1 µM	5.02 µM	1.98 µM	3.63 µM	1.77 µM	3.24 µM	3.34 µM	11.4 µM	3.35 µM	17.2 µM	2.39 µM	6.31 µM
COc1ccc(C(=O)Nc2ncc(Cc3ccc(Cl)cc3)s2)cc1	0.0385 µM	> 100 µM	0.0897 µM	> 100 µM	0.0825 µM	> 100 µM	0.0457 µM	–	0.0455 µM	> 100 µM	0.166 µM	12.7 µM	0.0419 µM	2.83 µM	0.239 µM	> 100 µM	0.0424 µM	> 100 µM	0.0347 µM	–
CC1(C)N=C(N)N=C(N)N1c1ccc(CCCCc2ccc(S(=O)(=O)F)cc2)cc1	0.425 µM	14.2 µM	2.58 µM	19.4 µM	0.445 µM	23.5 µM	> 90.2 µM	> 100 µM	0.415 µM	15.4 µM	4.55 µM	26.7 µM	0.574 µM	13.4 µM	2.6 µM	24.8 µM	2.16 µM	20.2 µM	0.828 µM	22.1 µM
CC(=O)Nc1cccc(-n2c(=O)n(C3CC3)c(=O)c3c(Nc4ccc(I)cc4F)n(C)c(=O)c(C)c32)c1	12.1 µM and > 8.55 µM	> 69.5 µM	5.11 µM and > 2.09 µM	> 100 µM	0.034 µM and 0.0221 µM	> 81.6 µM	2.29 µM and > 10 µM	40.6 µM and > 10 µM	< 0.01 µM and 0.00622 µM	> 48.8 µM	< 0.01 µM and 0.0024 µM	15.7 µM and > 10 µM	–	15.9 µM and > 10 µM	< 0.01 µM and 0.0212 µM	19.3 µM and > 10 µM	3.2 µM and > 2.79 µM	> 55.2 µM	< 0.01 µM and 0.00141 µM	> 41.7 µM
NC(CO)Cc1cnc[nH]1 (stereo not given)	> 100 µM	> 100 µM	> 100 µM	> 100 µM	> 100 µM	> 100 µM	> 100 µM	> 100 µM	> 100 µM	> 100 µM	> 100 µM	> 100 µM	> 100 µM	> 100 µM	> 100 µM	> 100 µM	> 100 µM	> 100 µM	> 100 µM	> 100 µM
COc1cc(C(=O)NC2c3ccccc3-c3ccccc32)c(N)cc1OCc1ccccc1	42.8 µM	> 100 µM	22.6 µM	58 µM	34.3 µM	> 100 µM	35.3 µM	> 100 µM	66.4 µM	> 100 µM	> 100 µM	> 100 µM	27.5 µM	> 100 µM	30.6 µM	> 100 µM	7.84 µM	30.7 µM	> 71.7 µM	> 100 µM
Cc1cc([C@@H](C)Nc2ccccc2C(=O)O)c2nc(N3CCOCC3)cc(=O)n2c1	3.36 µM	> 10 µM	> 10 µM	> 10 µM	1.85 µM	> 10 µM	> 10 µM	> 10 µM	> 10 µM	> 10 µM	> 10 µM	> 10 µM	> 10 µM	> 10 µM	> 10 µM	> 10 µM	0.43 µM	> 10 µM	5.5 µM	> 10 µM
Oc1ccccc1/C=N/Nc1ccc2ccccc2n1	4.92 µM	91.5 µM	5.39 µM	> 100 µM	3.18 µM	12.3 µM	1.95 µM	> 100 µM	4.64 µM	> 100 µM	6.59 µM	> 100 µM	4.12 µM	> 100 µM	3.36 µM	> 100 µM	2.01 µM	20.4 µM	2.44 µM	> 100 µM
Nc1n[nH]c2ccc([C@@H]3Nc4ccc5[nH]ncc5c4[C@H]4[C@H]5CCC(C5)[C@H]43)cc12	0.363 µM	> 100 µM	0.515 µM	> 100 µM	0.513 µM	> 51.6 µM	0.525 µM	> 44.1 µM	0.372 µM	> 100 µM	0.381 µM	11.6 µM	0.403 µM	2.6 µM	0.654 µM	> 46 µM	0.16 µM	11.3 µM	0.247 µM	0.654 µM
COc1ccc(NC(=O)Nc2n[nH]c3ccccc23)cc1	> 100 µM	> 100 µM	> 100 µM	> 100 µM	> 100 µM	> 100 µM	> 100 µM	> 100 µM	> 100 µM	> 100 µM	> 100 µM	> 100 µM	> 100 µM	> 100 µM	> 100 µM	> 100 µM	> 100 µM	> 100 µM	> 100 µM	> 100 µM
COc1cc2ncn(-c3cc(OCc4ccccc4Cl)c(C(N)=O)s3)c2cc1OC	0.0885 µM	> 25 µM	1 µM	> 25 µM	0.552 µM	> 25 µM	0.22 µM	> 10.3 µM	0.102 µM	> 18.1 µM	0.488 µM	> 25 µM	0.0993 µM	3.13 µM	0.202 µM	4.68 µM	0.707 µM	6.47 µM	0.0741 µM	–
CN1CCN(CC#Cc2cccc(C(=O)c3cnn(-c4ccc(F)cc4)c3N)c2)CC1	> 25 µM	> 25 µM	> 25 µM	> 25 µM	> 25 µM	> 25 µM	> 25 µM	> 25 µM	> 25 µM	> 25 µM	> 25 µM	> 25 µM	> 25 µM	> 25 µM	> 25 µM	> 25 µM	> 25 µM	> 25 µM	24.6 µM	> 25 µM
CN=C(N)N/N=C(\c1ccccc1)c1ccc(Br)cc1	0.268 µM	8.33 µM	0.6 µM	13.9 µM	0.629 µM	17.1 µM	0.322 µM	3.25 µM	0.417 µM	16.3 µM	0.38 µM	1.37 µM	0.335 µM	1.29 µM	0.562 µM	11.8 µM	0.387 µM	6.51 µM	0.216 µM	0.567 µM
